Assay results reported in BindingDB's records for doi:10.1016/j.chembiol.2003.11.012 (Universit&Agrave, 2003).
pKi: −log10 of the molar value.

Experiments:
Test in all cases: Inhibition Assay
Details in all cases: pH 7; 20 °C
[1] = molecular target: Bifunctional dihydrofolate reductase-thymidylate synthase (Leishmania major, UniProt P07382)
Description: (§1) The inhibition assay pattern for all of the compounds was determined by steady-state kinetic analysis of the dependence of the TS enzyme activity on folate concentration at various concentration.

[2] = molecular target: Thymidylate synthase (Escherichia coli (strain K12), UniProt P0A884)
Description: as §1

[3] = molecular target: T1, Thymidylate synthase (Lacticaseibacillus casei, UniProt P00469)
T1 sequence (P00469 whole entry): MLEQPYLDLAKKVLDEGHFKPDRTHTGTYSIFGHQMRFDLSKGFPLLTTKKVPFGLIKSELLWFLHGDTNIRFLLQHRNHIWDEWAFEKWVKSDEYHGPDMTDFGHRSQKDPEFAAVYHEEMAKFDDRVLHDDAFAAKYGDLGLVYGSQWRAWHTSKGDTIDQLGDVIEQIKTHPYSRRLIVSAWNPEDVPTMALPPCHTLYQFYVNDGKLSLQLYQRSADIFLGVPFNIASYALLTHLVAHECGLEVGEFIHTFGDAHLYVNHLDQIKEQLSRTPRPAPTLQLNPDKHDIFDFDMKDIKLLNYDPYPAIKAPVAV
Description: as §1

[4] = molecular target: Thymidylate synthase (Homo sapiens, UniProt P04818)
Description: as §1

[5] = molecular target: T2, Thymidylate synthase (Pneumocystis carinii, UniProt P13100)
T2 sequence (P13100 whole entry): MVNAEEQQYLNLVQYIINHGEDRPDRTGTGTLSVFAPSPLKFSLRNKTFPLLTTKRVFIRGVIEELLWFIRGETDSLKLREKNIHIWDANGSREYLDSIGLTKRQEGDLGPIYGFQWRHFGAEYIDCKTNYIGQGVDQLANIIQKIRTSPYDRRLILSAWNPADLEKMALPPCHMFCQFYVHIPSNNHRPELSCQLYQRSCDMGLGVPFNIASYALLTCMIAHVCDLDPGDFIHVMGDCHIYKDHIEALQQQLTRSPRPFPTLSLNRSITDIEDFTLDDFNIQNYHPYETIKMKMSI
Description: as §1

Thymidylate synthase (Escherichia coli (strain K12), UniProt P0A884), sequence (P0A884 whole entry): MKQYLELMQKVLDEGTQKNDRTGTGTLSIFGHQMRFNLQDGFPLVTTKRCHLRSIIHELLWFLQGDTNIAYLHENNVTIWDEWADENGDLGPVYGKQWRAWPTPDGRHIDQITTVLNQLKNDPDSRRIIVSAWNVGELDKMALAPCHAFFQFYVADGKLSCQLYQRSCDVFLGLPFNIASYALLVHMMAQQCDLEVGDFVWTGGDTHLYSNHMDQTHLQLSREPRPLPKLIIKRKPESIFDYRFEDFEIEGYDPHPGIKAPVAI
Bifunctional dihydrofolate reductase-thymidylate synthase, sequence (P07382 whole entry): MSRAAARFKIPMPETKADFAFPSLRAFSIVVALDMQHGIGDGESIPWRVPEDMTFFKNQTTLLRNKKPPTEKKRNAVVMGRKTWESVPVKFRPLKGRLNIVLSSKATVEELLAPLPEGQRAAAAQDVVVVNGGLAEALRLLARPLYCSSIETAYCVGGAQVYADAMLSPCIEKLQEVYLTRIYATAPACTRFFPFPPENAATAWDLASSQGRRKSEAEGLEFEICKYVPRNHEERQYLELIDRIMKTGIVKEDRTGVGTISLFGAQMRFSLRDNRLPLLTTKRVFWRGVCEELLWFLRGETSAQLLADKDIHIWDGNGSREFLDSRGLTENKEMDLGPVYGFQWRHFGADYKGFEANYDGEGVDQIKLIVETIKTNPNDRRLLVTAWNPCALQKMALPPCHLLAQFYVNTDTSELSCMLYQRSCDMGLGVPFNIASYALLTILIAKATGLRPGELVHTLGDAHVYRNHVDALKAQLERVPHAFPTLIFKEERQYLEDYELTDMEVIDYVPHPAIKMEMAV
Thymidylate synthase (Homo sapiens, UniProt P04818), sequence (P04818 whole entry): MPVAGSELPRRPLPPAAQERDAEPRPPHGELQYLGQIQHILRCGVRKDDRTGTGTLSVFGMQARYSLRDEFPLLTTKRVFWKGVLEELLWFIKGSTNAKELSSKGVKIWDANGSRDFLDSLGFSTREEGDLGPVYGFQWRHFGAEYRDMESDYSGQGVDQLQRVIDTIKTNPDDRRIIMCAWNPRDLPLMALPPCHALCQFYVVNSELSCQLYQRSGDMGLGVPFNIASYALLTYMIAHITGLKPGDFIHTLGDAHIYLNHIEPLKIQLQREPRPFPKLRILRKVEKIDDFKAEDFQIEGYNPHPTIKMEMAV

O=C1OC(c2ccc(O)c(Cl)c2)(c2ccc(O)c(Cl)c2)c2cccc3cccc1c23
pKi [1]: < 2.97

C#CCN(Cc1ccc2nc(N)[nH]c(=O)c2c1)c1ccc(C(=O)N[C@@H](CCC(=O)O)C(=O)O)cc1
pKi [1]: 7.10

O=C1OC(c2ccc(O)c(F)c2)(c2ccc(O)c(F)c2)c2cccc3cccc1c23 [Phenolnaphthalein derivative, 1]
pKi [1]: < 2.75

O=C1OC(c2ccc(O)c(Br)c2)(c2ccc(O)c(Br)c2)c2ccc(Cl)c3cccc1c23 [Phenolnaphthalein derivative, 2]
pKi [2]: 5.39
pKi [3]: 6.10
pKi [1]: < 2.97
pKi [4]: < 3.61
pKi [5]: 4.55

O=C1OC(c2ccc(O)c(F)c2)(c2ccc(O)c(F)c2)c2ccc(Cl)c3cccc1c23 [Phenolnaphthalein derivative, 3]
pKi [2]: 5.96
pKi [3]: 5.74
pKi [1]: < 2.97
pKi [4]: < 3.61
pKi [5]: 4.66

O=C1OC(c2ccc(O)c(Br)c2)(c2ccc(O)c(Br)c2)c2c1ccc1ccccc21 [Phenolnaphthalein derivative, 4]
pKi [2]: 6.05
pKi [1]: 4.20
pKi [4]: < 3.88
pKi [5]: < 3.88

O=C1OC(c2cc(Br)c(O)c(Br)c2)(c2cc(Br)c(O)c(Br)c2)c2c1ccc1ccccc21 [Phenolnaphthalein derivative, 5]
pKi [1]: 4.39
pKi [4]: < 3.61
pKi [5]: 4.49
